Earlier results, collected in patent publication US20120149711A1, “PIPERIDINE DERIVATIVES USED AS OREXIN ANTAGONISTS” (Glaxo Group Limited, priority 2009, published 2012).
No end group written: not given here.

Test system: freely-feeding rats
Settings: central administration, 4 hour time period

orexin-A: ligand for the orexin-1 receptor; an agonist of the orexin receptors (QPLPDCCRQKTCSCRLYELLHGAGNHAAGILTL; ends and bridges not checked; cysteine pairing not given here; UniProt O43612 34-66, looked up)
increase of food intake over control rats receiving vehicle: approximately four-fold
